From PubChem BioAssay (NCI)
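Interpolation was linear, between the two tested concentrations surrounding the appropriate level; five concentrations were tested over 48 hours in 96-well plates. GI50 is the concentration that inhibits growth by half. At the TGI there is no net growth.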

What was measured:
Experiment in all cases: DTP human tumour cell line panel, 48 h
[1] = system: MOLT-4 leukemia
[2] = system: 786-0 renal
[3] = system: SF-539 CNS
[4] = system: CAKI-1 renal
[5] = system: MALME-3M melanoma
[6] = system: NCI-H226 lung
[7] = system: OVCAR-3 ovarian
[8] = system: SR leukemia

Compound	GI50 [1] [µM]	TGI [1] [µM]	GI50 [2] [µM]	TGI [2] [µM]	GI50 [3] [nM]	TGI [3] [µM]	GI50 [4] [µM]	TGI [4] [µM]	GI50 [5] [µM]	TGI [5] [µM]	GI50 [6] [µM]	TGI [6] [µM]	GI50 [7] [µM]	TGI [7] [µM]	GI50 [8] [nM]	TGI [8] [µM]
O=C(c1ccccc1)c1c(NCC(O)CN2CCOCC2)n(Cc2ccccc2)c(=O)n(Cc2ccccc2)c1=O (centres undefined)	32.4	> 95.5	54.1	> 100	> 68000	> 100	32.5	> 100	48.8	> 100	31.6	> 95.1	27.6	> 77.3	–	–
Cc1cc(O)c(C2=NN(c3ccc(S(N)(=O)=O)cc3)C(c3ccc(Cl)cc3)C2)c(C)c1Cl (centres undefined)	1.94	7.25	4.97	17.4	12300	24.7	4.38	18.2	14.8	35.2	10.5	24.1	4.21	15.7	1280	5.02
c1cncc(CNCc2cccnc2)c1	–	> 100	–	> 100	–	> 100	–	> 100	–	> 100	–	> 100	–	> 100	–	> 100
CN(C)c1nc2ccccc2c2c1c1c(n2Cc2ccccc2)-c2ccccc2C1=O	25.5	> 100	> 100	> 100	> 100000	> 100	> 100	> 100	> 100	> 100	> 100	> 100	> 100	> 100	–	–
O=C(Oc1ccc(CO[N+](=O)[O-])cc1)c1ccccc1	–	–	0.0945	0.235	153	0.287	0.163	0.308	0.123	0.272	0.214	0.518	0.153	0.295	115	0.542
CSCCCNC(=O)c1ccc2c(c1)/C(=C/c1[nH]c(C)cc1C)C(=O)N2	1.7	> 100	1.93	> 100	734	> 100	–	–	0.597	> 100	2.24	> 100	1.98	> 100	476	61.4
Cc1nc(Nc2ccccn2)sc1C(=O)/C=C/c1ccc(Cl)cc1	0.592	> 100	0.549	> 47.2	252	0.812	0.46	13.4	0.734	43.8	1.09	26	0.325	5.48	518	> 100
C=C1CCC2(C#N)[C@H]3[C@H](CC[C@@H]2C)[C@@H](C)C[C@@H](CC(C)(C)NC(=O)CN2CCC2=O)[C@H]13 (some centres undefined)	13.8	70.3	13.7	37.8	5980	19.4	10.1	28.8	8.56	23.9	11.2	33.7	3.72	15	4020	23.6
C1=C2CCCC3=Cc4ccccc4OC23Oc2ccccc21	3.66	> 100	6.41	> 100	1920	5.01	3.71	> 100	7.17	> 100	> 100	> 100	3.06	> 100	2820	> 100
O=P1(S)OC[C@H]2O[C@@H]3[C@H](F)[C@@H]2OP(O)(=S)OC[C@H]2O[C@H]([C@H](F)[C@@H]2O1)n1cnc2c(ncnc21)NC/C=C/CNc1ncnc2c1ncn23 (some centres undefined)	> 100	> 100	> 100	> 100	229	> 39.9	> 100	> 100	> 100	> 100	0.652	> 100	> 100	> 100	239	> 100
Cc1ccc(S(=O)(=O)c2nc(-c3ccccc3)oc2S(C)=O)cc1 (centres undefined)	2.12	5.5	1.44	2.82	1550	3.01	1.5	2.84	1.7	3.47	1.96	4.73	1.03	2.35	1670	7.7
CC1=Nc2ccccc2/C1=C\c1c(C)[nH]c2ccccc12	–	40.2	–	25.8	–	77.3	–	29.1	–	30.5	–	33.2	–	34.8	–	47.5
CCOc1c(N=Nc2ccccc2Cl)c(-c2ccccc2)nn1C(=S)S	–	58.2	–	> 100	–	50.4	–	70.3	–	95.2	–	93.8	–	90.1	–	60
O=c1[nH]c2nc(NC3CCOCC3)ncc2cc1Oc1ccc(F)cc1F	> 25	> 25	> 25	> 25	> 25000	> 25	> 25	> 25	> 25	> 25	> 25	> 25	> 25	> 25	> 25000	> 25
Cc1nn2c(/C=C3/C(=O)Nc4cc(Cl)ccc43)c(-c3ccccc3)nc2s1	4.11	> 100	2.15	4.37	1710	3.46	1.87	4.38	1.89	3.91	4.56	63.7	1.89	3.68	3090	> 100
Cn1cc(-c2ccc3nnc(Sc4ccc5ncccc5c4)n3n2)cn1	> 100	> 100	> 100	> 100	> 93400	> 100	40.8	> 100	> 100	> 100	> 59.1	> 100	> 91.4	> 100	68100	> 100
